From patent US5332757A, “Oxime derivatives” (Zeneca Limited, priority 1992, dated 1994)

How the values were obtained:
5-LO [1] = molecular target: T1, 5-LO (Homo sapiens, UniProt P09917); test: test a) in vitro assay, heparinised human blood challenged with calcium ionophore A23187, LTB4 radioimmunoassay; assay type: cell-based
T1 construct: incubating a test compound with heparinised human blood, prior to challenge with the calcium ionophore A23187; from tissue; host or cells: heparinised human blood (endogenous enzyme of the blood cells)
T1 sequence (P09917 1-674): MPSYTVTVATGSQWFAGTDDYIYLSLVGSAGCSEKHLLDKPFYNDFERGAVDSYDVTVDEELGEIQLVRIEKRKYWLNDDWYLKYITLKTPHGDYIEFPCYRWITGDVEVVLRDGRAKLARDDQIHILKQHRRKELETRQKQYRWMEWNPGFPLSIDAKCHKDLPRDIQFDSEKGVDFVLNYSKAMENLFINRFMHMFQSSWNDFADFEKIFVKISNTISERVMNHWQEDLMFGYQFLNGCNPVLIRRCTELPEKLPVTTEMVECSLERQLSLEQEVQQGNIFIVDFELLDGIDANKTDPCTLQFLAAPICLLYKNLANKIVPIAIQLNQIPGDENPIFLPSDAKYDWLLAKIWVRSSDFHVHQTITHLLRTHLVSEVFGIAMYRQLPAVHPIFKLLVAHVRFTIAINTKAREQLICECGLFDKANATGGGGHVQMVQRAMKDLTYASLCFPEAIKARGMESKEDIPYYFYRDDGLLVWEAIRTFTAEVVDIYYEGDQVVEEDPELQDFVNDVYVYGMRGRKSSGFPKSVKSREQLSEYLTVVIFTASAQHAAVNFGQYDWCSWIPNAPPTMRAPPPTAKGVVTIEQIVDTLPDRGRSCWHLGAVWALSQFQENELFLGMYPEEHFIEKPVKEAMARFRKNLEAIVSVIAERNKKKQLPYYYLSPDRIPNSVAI
Procedure: a) An in vitro assay system involving incubating a test compound with heparinised human blood, prior to challenge with the calcium ionophore A23187 and then indirectly measuring the inhibitory effects on 5-LO by assaying the amount of LTB4 using specific radioimmunoassays described by Carey and Forder (Prostaglandins, Leukotrienes Med., 1986, 22, 57; Prostaglandins, 1984, 28, 666; Brit. J. Pharmacol., 1985, 84, 34P) which involves the use of a protein-LTB4 conjugate produced using the procedure of Young et alia (Prostaglandins, 1983, 26(4), 605-613). The effects of a test compound on the enzyme cyclooxygenase (which is involved in the alternative metabolic pathway for arachidonic acid and gives rise to prostaglandins, thromboxanes and related metabolites) may be measured at the same time using the specific radioimmunoassay for thromboxane B2 (TxB2) described by Carey and Forder (see above). This test provides an indication of the effects of a test compound against 5-LO and also cyclooxygenase in the presence of blood cells and proteins. It permits the selectivity of the inhibitory effect on 5-LO or cyclooxygenase to be assessed.

5-LO [2] = molecular target: T2, 5-LO (Rattus norvegicus, UniProt P12527); test: test c) in vivo zymosan-induced liberation of LTB4 in rat air pouch; set-up: species or system male rats; conditions: 3 h; test c), oral
T2 construct: within an air pouch generated within the subcutaneous tissue of the back of male rats; from tissue; host or cells: living male rats, cells of the zymosan-inflamed subcutaneous air pouch
T2 sequence (P12527 1-673): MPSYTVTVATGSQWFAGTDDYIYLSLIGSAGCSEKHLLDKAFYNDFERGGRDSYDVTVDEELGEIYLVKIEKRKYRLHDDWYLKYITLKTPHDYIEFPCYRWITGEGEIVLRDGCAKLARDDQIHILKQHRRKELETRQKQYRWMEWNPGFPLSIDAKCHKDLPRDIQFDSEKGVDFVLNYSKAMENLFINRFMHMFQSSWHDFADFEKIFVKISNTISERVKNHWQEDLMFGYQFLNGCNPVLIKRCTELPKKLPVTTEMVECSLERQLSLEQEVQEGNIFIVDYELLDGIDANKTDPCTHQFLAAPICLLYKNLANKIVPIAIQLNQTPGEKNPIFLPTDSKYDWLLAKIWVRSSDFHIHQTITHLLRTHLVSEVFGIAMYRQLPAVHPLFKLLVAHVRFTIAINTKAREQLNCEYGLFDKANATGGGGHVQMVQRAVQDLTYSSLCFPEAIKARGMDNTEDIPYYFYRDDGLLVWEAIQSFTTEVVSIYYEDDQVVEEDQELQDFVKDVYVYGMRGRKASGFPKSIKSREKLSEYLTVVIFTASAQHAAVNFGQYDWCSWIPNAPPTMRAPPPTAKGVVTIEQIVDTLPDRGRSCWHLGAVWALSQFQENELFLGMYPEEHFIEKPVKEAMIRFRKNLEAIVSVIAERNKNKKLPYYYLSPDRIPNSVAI
Procedure: c) An in vivo system involving measuring the effects of a test compound administered orally against the liberation of LTB4 induced by zymosan within an air pouch generated within the subcutaneous tissue of the back of male rats. The rats are anaesthetised and air pouches are formed by the injection of sterile air (20 ml). A further injection of air (10 ml) is similarly given after 3 days. At 6 days after the initial air injection the test compound is administered (usually orally as the suspension produced when a solution of the test compound in dimethylsulphoxide is added to hydroxypropylmethylcellulose), followed by the intrapouch injection of zymosan (1 ml of a 1% suspension in physiological saline). After 3 hours the rats are killed, the air pouches are lavaged with physiological saline, and the specific radioimmunoassay described above is used to assay LTB4 in the washings. This test provides an indication of inhibitory effects against 5-LO in an inflammatory milieu.

CO/N=C(\C)c1ccc(Sc2cc(F)cc(C3(OC)CCOCC3)c2)cc1 [Example 2, (E)-4'-[5-fluoro-3-(4-methoxytetrahydropyran-4-yl)phenylthio]acetophenone oxime O-methyl ether]
IC50 (5-LO [1]): 110 nM
ED50 (5-LO [2]): ~0.5 mg/kg

COC1(c2cc(F)cc(Sc3ccc(/C(C)=N/OCC#N)cc3)c2)CCOCC1 [Example 5, (E)-4'-[5-fluoro-3-(4-methoxytetrahydropyran-4-yl)phenylthio]acetophenone oxime O-cyanomethyl ether]
IC50 (5-LO [1]): 30 nM
ED50 (5-LO [2]): ~0.5 mg/kg

CO[C@]1(c2cc(F)cc(Sc3ccc(/C(C)=N/O)cc3)c2)CCO[C@@H](C)C1 [Example 26, (E)-4'-{5-fluoro-3-[(2S,4R)-4-methoxy-2-methyltetrahydropyran-4-yl]phenylthio}acetophenone oxime]
IC50 (5-LO [1]): 40 nM
ED50 (5-LO [2]): ~0.05 mg/kg
